This note sets out measurements from ChEMBL document CHEMBL1150976, “The selectivity of protein kinase inhibitors: a further update” (Biochem J, 2007).

The target in test [1] is Mitogen-activated protein kinase 10 (Homo sapiens) (UniProt P53779). The test is described as follows: Percentage JNK3 activity remaining in the presence of 0.1uM inhibitor.
The target of test [2] is T1, 3-phosphoinositide-dependent protein kinase 1 (Homo sapiens) (UniProt O15530).
T1 sequence (whole entry): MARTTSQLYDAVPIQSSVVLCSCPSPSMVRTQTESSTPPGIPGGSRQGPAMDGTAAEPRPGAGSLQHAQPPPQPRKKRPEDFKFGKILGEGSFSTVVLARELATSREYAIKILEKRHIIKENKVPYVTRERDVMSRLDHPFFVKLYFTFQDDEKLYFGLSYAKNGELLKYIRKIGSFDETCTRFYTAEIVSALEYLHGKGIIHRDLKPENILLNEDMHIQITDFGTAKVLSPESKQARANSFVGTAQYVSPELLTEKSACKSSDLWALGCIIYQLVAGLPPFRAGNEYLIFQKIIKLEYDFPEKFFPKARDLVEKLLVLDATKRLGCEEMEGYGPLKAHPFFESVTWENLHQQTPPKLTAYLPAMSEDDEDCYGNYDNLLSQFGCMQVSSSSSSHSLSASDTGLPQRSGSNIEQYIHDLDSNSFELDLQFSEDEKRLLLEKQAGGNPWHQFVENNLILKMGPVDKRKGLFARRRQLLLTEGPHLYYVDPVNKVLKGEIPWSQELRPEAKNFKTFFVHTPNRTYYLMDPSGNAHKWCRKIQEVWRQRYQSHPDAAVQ
Briefly: Percentage PDK1 activity remaining in the presence of 0.1uM inhibitor.

In test [3] the target is T2, Serine/threonine-protein kinase D1 (Homo sapiens) (UniProt Q15139).
T2 sequence (whole entry): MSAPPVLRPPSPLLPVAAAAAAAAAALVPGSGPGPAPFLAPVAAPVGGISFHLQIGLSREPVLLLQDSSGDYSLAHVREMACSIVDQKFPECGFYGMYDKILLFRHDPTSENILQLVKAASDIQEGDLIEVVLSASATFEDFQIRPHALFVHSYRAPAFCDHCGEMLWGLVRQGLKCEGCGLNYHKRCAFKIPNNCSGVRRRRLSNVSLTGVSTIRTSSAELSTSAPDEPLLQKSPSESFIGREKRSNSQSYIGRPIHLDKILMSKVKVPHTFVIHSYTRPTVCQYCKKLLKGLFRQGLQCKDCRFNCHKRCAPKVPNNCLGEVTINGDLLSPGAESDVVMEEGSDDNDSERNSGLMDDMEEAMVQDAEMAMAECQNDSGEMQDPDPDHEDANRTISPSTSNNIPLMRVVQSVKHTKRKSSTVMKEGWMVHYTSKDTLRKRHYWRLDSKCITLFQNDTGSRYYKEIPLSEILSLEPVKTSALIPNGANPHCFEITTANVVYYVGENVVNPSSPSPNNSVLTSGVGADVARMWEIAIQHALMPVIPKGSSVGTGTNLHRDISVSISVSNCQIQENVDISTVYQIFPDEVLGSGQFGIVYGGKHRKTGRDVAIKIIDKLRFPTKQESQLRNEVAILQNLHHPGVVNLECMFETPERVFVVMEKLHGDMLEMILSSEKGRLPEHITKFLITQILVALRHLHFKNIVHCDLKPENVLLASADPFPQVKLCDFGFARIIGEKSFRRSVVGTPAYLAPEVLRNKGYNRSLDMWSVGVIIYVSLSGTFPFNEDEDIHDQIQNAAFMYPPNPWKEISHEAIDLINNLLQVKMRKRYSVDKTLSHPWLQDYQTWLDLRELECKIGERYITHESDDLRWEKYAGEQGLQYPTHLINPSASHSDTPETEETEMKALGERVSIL
Briefly: Percentage PKD1 activity remaining in the presence of 0.1uM inhibitor.

Test [4] addresses Cyclin-dependent kinase 2/cyclin A (Homo sapiens) (UniProt P24941+P20248+P78396). Briefly: Percentage CDK2-cyclinA activity remaining in the presence of 0.1uM inhibitor. In kind it is protein-complex assay.
The target of test [5] is T3, Aurora kinase C (Homo sapiens) (UniProt Q9UQB9).
T3 sequence (whole entry): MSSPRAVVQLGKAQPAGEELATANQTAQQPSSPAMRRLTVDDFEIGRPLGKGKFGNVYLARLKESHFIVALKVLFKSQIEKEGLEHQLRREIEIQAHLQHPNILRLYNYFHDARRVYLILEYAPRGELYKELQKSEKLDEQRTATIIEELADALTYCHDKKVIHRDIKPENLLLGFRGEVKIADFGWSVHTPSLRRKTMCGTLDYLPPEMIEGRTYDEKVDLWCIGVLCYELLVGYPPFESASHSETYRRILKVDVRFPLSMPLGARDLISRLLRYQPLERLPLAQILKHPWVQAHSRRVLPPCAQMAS
Briefly: Percentage Aurora C activity remaining in the presence of 0.1uM inhibitor.

Test [6] deals with Serine/threonine-protein kinase N2 (Homo sapiens) (UniProt Q16513). Briefly: Percentage PRK2 activity remaining in the presence of 0.1uM inhibitor.
The target in test [7] is MAP kinase-interacting serine/threonine-protein kinase 1 (Homo sapiens) (UniProt Q9BUB5). Briefly: Percentage MNK1 activity remaining in the presence of 0.1uM inhibitor.
Test [8] concerns the target SRSF protein kinase 1 (Homo sapiens) (UniProt Q96SB4). Briefly: Percentage SRPK1 activity remaining in the presence of 0.1uM inhibitor.
Test [9] addresses Serine/threonine-protein kinase pim-2 (Homo sapiens, UniProt Q9P1W9). The test is described as follows: Percentage PIM2 activity remaining in the presence of 0.1uM inhibitor.
The target in test [10] is Myosin light chain kinase, smooth muscle (Homo sapiens, UniProt Q15746). The test is described as follows: Percentage SmMLCK activity remaining in the presence of 0.1uM inhibitor.
Test [11] concerns the target Calcium/calmodulin-dependent protein kinase type 1 (Homo sapiens) (UniProt Q14012). The test is described as follows: Percentage CaMK1 activity remaining in the presence of 0.1uM inhibitor.
The target of test [12] is MAP kinase-activated protein kinase 2 (Homo sapiens) (UniProt P49137). The test is described as follows: Percentage MAPKAPK2 activity remaining in the presence of 0.1uM inhibitor.
Test [13] has as its target Mitogen-activated protein kinase 11 (Homo sapiens) (UniProt Q15759). The test is described as follows: Percentage p38beta activity remaining in the presence of 0.1uM inhibitor.
Test [14] deals with MAP kinase-interacting serine/threonine-protein kinase 2 (Homo sapiens) (UniProt Q9HBH9). Briefly: Percentage MNK2 activity remaining in the presence of 0.1uM inhibitor.
For test [15], the target named is Homeodomain-interacting protein kinase 2 (Homo sapiens) (UniProt Q9H2X6). Briefly: Percentage HIPK2 activity remaining in the presence of 0.1uM inhibitor.

Chain of Serine/threonine-protein kinase pim-2 (Q9P1W9 whole entry, looked up): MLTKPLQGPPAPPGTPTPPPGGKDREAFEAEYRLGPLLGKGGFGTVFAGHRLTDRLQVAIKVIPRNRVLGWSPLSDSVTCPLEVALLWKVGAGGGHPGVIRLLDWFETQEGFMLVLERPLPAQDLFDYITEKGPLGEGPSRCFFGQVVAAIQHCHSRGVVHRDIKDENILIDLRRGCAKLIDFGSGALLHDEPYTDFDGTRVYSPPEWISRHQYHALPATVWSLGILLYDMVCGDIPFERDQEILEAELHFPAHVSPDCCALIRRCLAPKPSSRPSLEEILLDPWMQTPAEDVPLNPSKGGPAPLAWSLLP
Chain of Mitogen-activated protein kinase 10 (Homo sapiens) (P53779 whole entry): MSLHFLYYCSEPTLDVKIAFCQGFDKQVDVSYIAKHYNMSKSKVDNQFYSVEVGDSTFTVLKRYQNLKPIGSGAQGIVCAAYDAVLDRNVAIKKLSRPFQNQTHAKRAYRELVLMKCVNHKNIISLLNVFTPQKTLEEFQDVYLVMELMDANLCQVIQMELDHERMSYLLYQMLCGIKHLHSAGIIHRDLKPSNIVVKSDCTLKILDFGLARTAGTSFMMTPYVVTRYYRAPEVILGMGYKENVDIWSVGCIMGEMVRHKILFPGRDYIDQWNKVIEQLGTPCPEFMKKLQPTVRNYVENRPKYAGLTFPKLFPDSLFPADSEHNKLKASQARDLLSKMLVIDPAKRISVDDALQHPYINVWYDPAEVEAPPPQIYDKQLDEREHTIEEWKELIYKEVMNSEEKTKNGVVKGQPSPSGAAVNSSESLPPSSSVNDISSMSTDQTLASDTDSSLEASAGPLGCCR
Chain of MAP kinase-activated protein kinase 2 (Homo sapiens) (P49137 whole entry, looked up): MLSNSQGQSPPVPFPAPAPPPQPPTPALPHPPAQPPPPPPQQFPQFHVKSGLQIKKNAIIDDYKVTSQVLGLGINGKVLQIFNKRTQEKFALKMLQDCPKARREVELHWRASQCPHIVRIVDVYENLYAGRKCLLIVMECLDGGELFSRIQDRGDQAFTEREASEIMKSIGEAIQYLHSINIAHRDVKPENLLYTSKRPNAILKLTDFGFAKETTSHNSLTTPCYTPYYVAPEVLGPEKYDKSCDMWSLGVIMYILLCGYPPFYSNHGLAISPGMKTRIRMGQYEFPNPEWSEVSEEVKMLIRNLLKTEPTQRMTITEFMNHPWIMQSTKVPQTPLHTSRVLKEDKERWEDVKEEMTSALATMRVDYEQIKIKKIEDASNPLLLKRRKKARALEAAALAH
Chain of Myosin light chain kinase, smooth muscle (Q15746 whole entry): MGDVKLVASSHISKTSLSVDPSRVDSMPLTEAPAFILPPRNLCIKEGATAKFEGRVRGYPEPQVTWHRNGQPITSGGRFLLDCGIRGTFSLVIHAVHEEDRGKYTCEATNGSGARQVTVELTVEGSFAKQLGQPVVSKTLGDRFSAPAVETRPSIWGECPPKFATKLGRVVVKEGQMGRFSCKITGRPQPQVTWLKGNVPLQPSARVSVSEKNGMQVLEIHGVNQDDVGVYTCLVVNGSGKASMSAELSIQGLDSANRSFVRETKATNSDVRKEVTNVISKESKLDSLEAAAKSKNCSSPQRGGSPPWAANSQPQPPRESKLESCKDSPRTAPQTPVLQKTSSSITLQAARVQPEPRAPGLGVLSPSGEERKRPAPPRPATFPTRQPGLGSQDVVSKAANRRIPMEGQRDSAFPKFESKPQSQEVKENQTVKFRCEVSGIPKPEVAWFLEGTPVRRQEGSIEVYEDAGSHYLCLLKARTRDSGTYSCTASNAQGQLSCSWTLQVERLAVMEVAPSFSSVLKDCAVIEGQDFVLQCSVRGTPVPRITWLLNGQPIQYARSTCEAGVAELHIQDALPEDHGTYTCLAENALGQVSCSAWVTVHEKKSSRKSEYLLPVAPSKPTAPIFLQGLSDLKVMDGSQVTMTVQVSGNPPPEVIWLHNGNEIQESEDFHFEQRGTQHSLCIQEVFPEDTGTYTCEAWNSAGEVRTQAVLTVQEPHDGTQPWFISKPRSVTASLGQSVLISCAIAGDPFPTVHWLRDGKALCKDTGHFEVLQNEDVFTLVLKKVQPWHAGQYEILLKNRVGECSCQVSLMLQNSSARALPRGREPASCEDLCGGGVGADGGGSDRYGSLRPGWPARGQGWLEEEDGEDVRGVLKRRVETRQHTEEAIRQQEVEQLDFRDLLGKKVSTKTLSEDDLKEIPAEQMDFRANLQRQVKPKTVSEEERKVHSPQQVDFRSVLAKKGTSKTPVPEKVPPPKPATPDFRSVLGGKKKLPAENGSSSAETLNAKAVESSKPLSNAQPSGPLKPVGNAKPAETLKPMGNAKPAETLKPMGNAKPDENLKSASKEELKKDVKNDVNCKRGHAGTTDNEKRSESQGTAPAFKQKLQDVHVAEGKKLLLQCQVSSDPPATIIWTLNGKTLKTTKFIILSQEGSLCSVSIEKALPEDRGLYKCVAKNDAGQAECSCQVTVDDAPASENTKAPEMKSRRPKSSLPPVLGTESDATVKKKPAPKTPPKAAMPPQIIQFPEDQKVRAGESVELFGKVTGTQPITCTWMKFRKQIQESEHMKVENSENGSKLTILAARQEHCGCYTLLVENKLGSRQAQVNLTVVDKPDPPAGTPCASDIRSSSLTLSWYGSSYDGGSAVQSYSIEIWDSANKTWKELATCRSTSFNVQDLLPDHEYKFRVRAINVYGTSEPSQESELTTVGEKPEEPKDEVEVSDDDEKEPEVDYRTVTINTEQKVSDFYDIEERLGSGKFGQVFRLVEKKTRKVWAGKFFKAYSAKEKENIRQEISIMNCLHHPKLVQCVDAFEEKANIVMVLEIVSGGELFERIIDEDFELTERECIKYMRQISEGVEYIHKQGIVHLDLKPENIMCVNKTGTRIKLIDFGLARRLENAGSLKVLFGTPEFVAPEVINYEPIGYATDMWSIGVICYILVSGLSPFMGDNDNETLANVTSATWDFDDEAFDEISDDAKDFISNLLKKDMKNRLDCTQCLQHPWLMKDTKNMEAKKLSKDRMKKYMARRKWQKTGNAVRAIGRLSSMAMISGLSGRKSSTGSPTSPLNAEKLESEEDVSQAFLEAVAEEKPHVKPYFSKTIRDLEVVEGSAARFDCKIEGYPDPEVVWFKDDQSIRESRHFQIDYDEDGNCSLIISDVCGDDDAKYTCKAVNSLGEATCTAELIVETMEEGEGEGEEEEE
Chain of Calcium/calmodulin-dependent protein kinase type 1 (Homo sapiens) (Q14012 whole entry, looked up): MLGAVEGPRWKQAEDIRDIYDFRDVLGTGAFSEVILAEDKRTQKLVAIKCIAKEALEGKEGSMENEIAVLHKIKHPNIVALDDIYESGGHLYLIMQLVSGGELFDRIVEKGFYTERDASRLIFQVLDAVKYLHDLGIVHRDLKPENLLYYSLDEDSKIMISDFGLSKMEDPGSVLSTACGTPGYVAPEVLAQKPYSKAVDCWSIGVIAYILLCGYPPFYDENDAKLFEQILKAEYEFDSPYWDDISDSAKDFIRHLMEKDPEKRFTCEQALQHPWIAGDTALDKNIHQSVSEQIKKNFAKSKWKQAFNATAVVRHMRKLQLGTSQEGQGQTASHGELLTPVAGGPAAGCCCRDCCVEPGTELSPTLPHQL
Chain of SRSF protein kinase 1 (Homo sapiens) (Q96SB4 whole entry): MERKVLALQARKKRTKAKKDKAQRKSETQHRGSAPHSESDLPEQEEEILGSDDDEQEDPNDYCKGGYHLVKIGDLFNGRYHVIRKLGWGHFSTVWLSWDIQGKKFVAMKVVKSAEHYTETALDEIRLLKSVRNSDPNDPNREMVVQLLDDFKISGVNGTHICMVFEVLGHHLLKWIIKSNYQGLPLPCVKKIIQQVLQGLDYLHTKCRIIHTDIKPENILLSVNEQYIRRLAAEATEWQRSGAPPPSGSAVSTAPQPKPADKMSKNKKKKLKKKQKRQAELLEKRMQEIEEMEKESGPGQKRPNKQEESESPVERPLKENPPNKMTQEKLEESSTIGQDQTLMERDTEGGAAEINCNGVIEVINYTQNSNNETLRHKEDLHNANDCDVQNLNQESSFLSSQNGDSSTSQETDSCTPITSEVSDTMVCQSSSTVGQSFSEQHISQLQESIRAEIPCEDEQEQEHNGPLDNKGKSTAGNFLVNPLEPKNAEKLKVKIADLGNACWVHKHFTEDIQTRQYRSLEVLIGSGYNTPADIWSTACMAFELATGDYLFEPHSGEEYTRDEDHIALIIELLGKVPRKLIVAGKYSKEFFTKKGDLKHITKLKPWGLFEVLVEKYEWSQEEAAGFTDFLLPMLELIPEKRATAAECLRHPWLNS
Chain of MAP kinase-interacting serine/threonine-protein kinase 1 (Homo sapiens) (Q9BUB5 whole entry, looked up): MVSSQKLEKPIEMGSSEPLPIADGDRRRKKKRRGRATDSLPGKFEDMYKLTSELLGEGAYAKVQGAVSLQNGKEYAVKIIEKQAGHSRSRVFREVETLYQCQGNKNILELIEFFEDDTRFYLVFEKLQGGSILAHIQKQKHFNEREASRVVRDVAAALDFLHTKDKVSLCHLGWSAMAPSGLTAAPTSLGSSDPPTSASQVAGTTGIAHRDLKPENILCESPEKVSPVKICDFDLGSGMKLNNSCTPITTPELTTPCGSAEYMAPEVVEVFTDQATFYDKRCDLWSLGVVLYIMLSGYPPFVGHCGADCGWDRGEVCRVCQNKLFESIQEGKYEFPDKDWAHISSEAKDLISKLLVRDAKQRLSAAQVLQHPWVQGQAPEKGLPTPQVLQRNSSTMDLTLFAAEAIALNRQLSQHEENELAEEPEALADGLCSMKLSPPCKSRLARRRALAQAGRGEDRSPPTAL
Chain of MAP kinase-interacting serine/threonine-protein kinase 2 (Homo sapiens) (Q9HBH9 whole entry, looked up): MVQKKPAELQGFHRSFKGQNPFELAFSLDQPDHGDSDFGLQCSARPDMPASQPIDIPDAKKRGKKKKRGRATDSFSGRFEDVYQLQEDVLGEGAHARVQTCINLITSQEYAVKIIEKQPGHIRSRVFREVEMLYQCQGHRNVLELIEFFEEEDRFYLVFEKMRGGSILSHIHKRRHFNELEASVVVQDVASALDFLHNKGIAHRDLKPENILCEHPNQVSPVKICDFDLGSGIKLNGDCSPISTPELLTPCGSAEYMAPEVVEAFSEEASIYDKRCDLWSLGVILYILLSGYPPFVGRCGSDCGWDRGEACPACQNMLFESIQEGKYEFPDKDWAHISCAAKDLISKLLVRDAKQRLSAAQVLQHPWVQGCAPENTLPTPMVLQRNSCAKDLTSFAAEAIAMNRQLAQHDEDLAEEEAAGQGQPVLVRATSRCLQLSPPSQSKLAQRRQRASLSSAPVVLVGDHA

With `CC(C)[C@H](CO)Nc1nc(Nc2cccc(Cl)c2)c2ncn(C(C)C)c2n1` [PURVALANOLA], the Activity was 100% in test [1]; 79% in [2]; 85% in test [3]; 9% in test [4] (filed as antagonist); 85% in test [5]; 81% in test [6]. Besides, the Activity in test [7] was 92%; in test [8] it was 79%; in test [9] it was 96%; in test [10] it was 86%; in [11], 99%; in [12] it was 106%. Moreover, the results for the Activity in test [13] and in [14] were 90% and 98%, respectively.

With `Cn1cc(C2=C(c3cn(CCCSC(=N)N)c4ccccc34)C(=O)NC2=O)c2ccccc21`, the Activity was 102% in [1]; 62% in test [2]; 66% in test [3]; 3% in test [4] (filed as antagonist); 77% in test [5]; 8% in test [6] (filed as antagonist). Also, the Activity is 95% in test [7]; 82% in test [8]; 30% in test [9] (filed as antagonist); 63% in [10]; 91% in [11]; 90% in [12]. The Activity in [15] was found to be 88%; in [13], 99%; in test [14], 103%.

Consider `O=C(NCCCNc1nc(Nc2cccc(NC(=O)N3CCCC3)c2)ncc1I)c1cccs1`, for which the Activity in test [1] is 93%; in test [2] (filed as antagonist) it was 5%; in test [3] (filed as antagonist) it was 38%; in [4] (filed as antagonist), 10%; in test [5] (filed as antagonist), 9%; in test [6] (filed as antagonist), 43%. In addition, the Activity in [7] (filed as antagonist) was 37%; in [8], 86%; in test [9], 92%; in test [10], 95%; in test [11], 71%; in test [12], 108%. Also, the Activity in test [15] is 101%; in [13] it was 71%; in test [14] (filed as antagonist), 19%.

As for `Cn1c2ccccc2c2c3c(c4c5ccccc5n(CCC#N)c4c21)CNC3=O`, the Activity in test [1] was 79%; in test [2] (filed as antagonist), 11%; in test [3] (filed as antagonist), 5%; in test [4] (filed as antagonist), 8%; in test [5] (filed as antagonist), 44%; in test [6] (filed as antagonist) it was 5%. For the same compound, the Activity in test [7] is 67%; in [8], 92%; in [10] (filed as antagonist), 40%; in [11], 98%; in test [12], 118%; in test [15] it was 63%. Also, the Activity in test [13] is 100%; in [14] (filed as antagonist), 30%.

With `CN(C)C[C@@H]1CCn2cc(c3ccccc32)C2=C(C(=O)NC2=O)c2cn(c3ccccc23)CCO1`, the Activity in test [1] is 112%; in [2] (filed as antagonist), 25%; in test [4], 68%; in test [5], 92%; in test [6] (filed as antagonist), 38%; in test [7] it was 94%. Besides, the Activity in test [9] (filed as antagonist) is 41%; in test [10] it was 66%; in test [12], 114%; in [15], 63%; in [13], 109%; in test [14], 101%.

As to `CC(C)CCN1c2nc(Nc3cc(F)c(O)c(F)c3)ncc2N(C)C(=O)C1C` (centres undefined), the Activity in [1] is 97%; in test [2] it was 94%; in test [3], 63%; in test [4], 84%; in [5], 76%; in test [6], 97%. In addition, the Activity in test [7] came to 87%; in test [8], 94%; in test [9] it was 100%; in [10], 107%; in test [11], 103%; in test [12], 89%. Moreover, the Activity turned out to be 103% in test [15], 100% in test [13] and 96% in test [14].

`Cc1n[nH]c2ccc(-c3cncc(OC[C@@H](N)Cc4c[nH]c5ccccc45)c3)cc12`: the Activity was 86% in test [1]; 79% in [2]; 23% in test [3] (filed as antagonist); 92% in test [5]; 2% in test [6] (filed as antagonist); 109% in test [7]. The Activity was 91% in test [8]; 15% in test [9] (filed as antagonist); 27% in test [10] (filed as antagonist); 77% in test [11]; 73% in test [12]; 24% in test [15] (filed as antagonist). For the same compound, the Activity in [13] turned out to be 105%; in test [14] it was 80%.
